The values below come from paper PMC9448382, “Fluorosulfate-containing pyrazole heterocycles as selective BuChE inhibitors: structure-activity relationship and biological evaluation for the treatment of Alzheimer’s disease” (Journal of Enzyme Inhibition and Medicinal Chemistry, 2022).

Usually IC50 stands for the concentration needed to halve the response being measured. Usually inhibition stands for the percentage by which the read-out fell short of the control. For orientation: Papp means the rate of passage across a membrane or cell layer, normalised by area and donor concentration. Lower therefore signals poor permeation.

The subject of the first data set is male ICR mice.
Assay: not given
Conditions: Aβ1–42 10 µg icv, K3 10 mg/kg po, donepezil 15 mg/kg po, Day 3 to Day 14.
With `COc1cc2c(cc1OC)C(=O)C(CC1CCN(Cc3ccccc3)CC1)C2` (stereo not shown) [Donepezil, reference compound], the “effect on Aβ1–42-induced cognitive dysfunction (MWM)” value was “significantly improved”.

Another data set deals with T1, BuChE from horse serum (Equus caballus, UniProt P81908).
T1 construct: BuChE from horse serum (C4290-1KU; Sigma); purchased Sigma C4290-1KU; host or cells: horse serum
T1 sequence (P81908 whole entry): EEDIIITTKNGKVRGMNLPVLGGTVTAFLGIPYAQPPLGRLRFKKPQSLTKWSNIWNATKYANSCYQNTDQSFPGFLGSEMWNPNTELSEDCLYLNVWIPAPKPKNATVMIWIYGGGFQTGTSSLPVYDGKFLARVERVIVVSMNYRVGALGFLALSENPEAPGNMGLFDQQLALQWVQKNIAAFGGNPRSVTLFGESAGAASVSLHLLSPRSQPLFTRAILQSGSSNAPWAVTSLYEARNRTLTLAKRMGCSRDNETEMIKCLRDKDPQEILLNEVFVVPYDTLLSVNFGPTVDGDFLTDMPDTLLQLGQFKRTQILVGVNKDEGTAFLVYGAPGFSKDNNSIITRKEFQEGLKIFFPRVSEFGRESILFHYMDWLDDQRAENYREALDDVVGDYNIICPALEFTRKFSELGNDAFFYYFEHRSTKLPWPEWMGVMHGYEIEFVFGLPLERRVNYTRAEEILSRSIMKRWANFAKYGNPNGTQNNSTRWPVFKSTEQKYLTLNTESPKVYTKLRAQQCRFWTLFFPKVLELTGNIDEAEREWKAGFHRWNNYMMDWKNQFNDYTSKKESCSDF
In words: biochemical. The class given is biochemical.
Details: not given
As to the method: (§1) According to Ellman's method, assays were carried out on AChE from electric eel (C3389-500UN; Sigma) and BuChE from horse serum (C4290-1KU; Sigma). On a final volume of 500 μL, the experiment was carried out in 48-well plates. EeAChE or eqBuChE, 0.036 U/mL, and 0.1 M pH 8 phosphate buffer were added to each well. At 37 °C, they were pre-incubated for 20 min at various chemical concentrations. […] Along with the enzymatic breakdown of ACh or BuCh, the DTNB creates the yellow anion 5-thio-2-nitrobenzoic acid. In a Biotek Synergy HTX Multi-Mode reader, changes in absorbance were detected at 410 nm. Inhibition curves were used to calculate the IC50 values (log inhibitor concentration vs percent of inhibition). The same conditions were used in a control experiment without the inhibitor, and the blank comprised buffer, DMSO, DTNB, and substrate.
(§2) The IC50 values were calculated by SPSS 17.0.
As for `O=S(=O)(F)Oc1cc(-c2ccccc2)nn1-c1ccccn1` [Compound K7], the IC50 is 9.89 ± 0.87 µM. Still for that read-out and setting: the figure for `Cc1cc(OS(=O)(=O)F)n(-c2ccc(Cl)cc2)n1` [Compound K15] is 5.26 ± 0.39 µM; for `O=S(=O)(F)Oc1cc(C2CC2)nn1-c1ccccc1` [Compound K26] it is 14.4 ± 1.08 µM; for `CC(C)c1cc(OS(=O)(=O)F)n(-c2ccccc2)n1` [Compound K20] it is 11.25 ± 0.11 µM. The same measure, in the same setting: the figure for `Cc1ccc(-n2nc(C(C)C)cc2OS(=O)(=O)F)cc1` [Compound K22] is 18 ± 0.34 µM; for `Cc1ccc(-n2nc(C(C)C)cc2OS(=O)(=O)F)cc1C` [Compound K23] it is 3.98 ± 0.09 µM. On the same count and under the same terms, the figure for `Cc1ccc(-n2nc(-c3ccccc3)cc2OS(=O)(=O)F)cc1C` [Compound K5] is 2.23 ± 0.31 µM; for `Cc1ccc(-n2nc(-c3ccccc3)cc2OS(=O)(=O)F)cc1` [Compound K4] it is 2.35 ± 1.02 µM.

Take `Cc1cc(OS(=O)(=O)F)n(-c2ccc(Br)cc2)n1` [Compound K16]: the IC50 stood at 7.64 ± 0.41 µM. On to `O=S(=O)(F)Oc1cc(-c2ccccc2)n[nH]1` [Compound K10], for which the IC50 amounted to 6.92 ± 1.41 µM. Same read-out and setting: then `Cc1cc(OS(=O)(=O)F)n(-c2ccccc2)n1` [Compound K13], with 9.16 ± 0.53 µM; and `Cc1cc(OS(=O)(=O)F)n(-c2ccc(C)c(C)c2)n1` [Compound K18], with 3.31 ± 0.7 µM; and `Cc1cccc(-n2nc(C)cc2OS(=O)(=O)F)c1` [Compound K17], with 19.2 ± 0.69 µM. Same read-out and setting: the figure for `CCCc1cc(OS(=O)(=O)F)n(-c2ccc(OC)cc2)n1` [Compound K25] is 3.47 ± 0.04 µM. Still for that read-out and setting: the figure for `Cc1cc(OS(=O)(=O)F)n(-c2ccc(F)cc2)n1` [Compound K14] is 5.5 ± 0.09 µM; for `O=S(=O)(F)Oc1cc(-c2ccccc2)nn1-c1ccccc1` [Compound K1] it is 2.28 ± 0.64 µM; for `CC(C)c1cc(OS(=O)(=O)F)n(-c2ccc(F)cc2)n1` [Compound K21] it is 6.9 ± 0.42 µM. Consider `O=S(=O)(F)Oc1cc(-c2ccccc2)nn1-c1ccc(F)cc1` [Compound K2], for which the concentration for half-maximal inhibition (IC50) was determined as 1.73 ± 0.62 µM.

For the compound `CCCc1cc(OS(=O)(=O)F)n(-c2ccc(Cl)cc2)n1` [Compound K24], the concentration for half-maximal inhibition (IC50) stood at 4.59 ± 0.06 µM. In the case of `O=S(=O)(F)Oc1cc(-c2ccccc2)nn1C1CCCCC1` [Compound K8], the IC50 is 5.84 ± 0.87 µM.

The same data set, now with this note: BuChE from horse serum; 20 µM; na = no inhibitory activity at 20 µM.
As for `Cc1nn(-c2ccccn2)c(OS(=O)(=O)F)c1C` [Compound K12], the “BuChE % inhibition at 20 µM” value was 20.7 ± 1.7%. In the case of `Cc1nn(-c2ccccc2)c(OS(=O)(=O)F)c1C` [Compound K11], the “BuChE % inhibition at 20 µM” value came to 45.2 ± 1.8%. Same read-out and setting: then `Cc1cc(OS(=O)(=O)F)n(C(C)(C)C)n1` [Compound K19], with “no activity”; and `CC(C)(C)n1nc(-c2ccccc2)cc1OS(=O)(=O)F` [Compound K9], with 30.9 ± 1.5%.

The same data set, now with this note: read-out: BuChE % inhibition at 20 µM.
As for `COc1ccc(-n2nc(-c3ccccc3)cc2OS(=O)(=O)F)cc1` [Compound K6], the inhibition at 20 µM was 47.9 ± 1.9%.

Staying with this data set, now noted: read-out: BuChE % inhibition at 20 µM; BuChE from horse serum; 20 µM; na = no inhibitory activity at 20 µM.
On to `O=C1CC(c2ccccc2)=NN1c1ccc(Cl)cc1` [Compound M3], for which the inhibition at 20 µM was determined as 25.4 ± 5.4%.

Regarding `Cc1ccc(N2N=C(c3ccccc3)CC2=O)cc1C` [Compound M4], the inhibition at 20 µM was 44.1 ± 13.8%. Still for that read-out and setting: then `O=C1CC(c2ccccc2)=NN1c1ccc(F)cc1` [Compound M2], with 27.7 ± 11.7%.

Test system in the next data set: not listed separately
In words: in vitro. As to conditions: PAMPA. An excerpt:
Based on prior work[40]^,[41], a parallel artificial membrane permeation assay (PAMPA) for the blood-brain barrier (BBB) was used to determine the ability of the test chemical to penetrate into the brain. Six commercial medicines were purchased from Aladdin Reagents to validate the methodology. Energy Chemical provided the DMSO and dodecane. Avanti Polar Lipids provided the porcine brain lipid (PBL). Millipore provided the donor 96-well filter microplate with a PVDF membrane (pore size […]) and the acceptor indented 96-well microplate. Corning Inc. provided the 96-well UV plate (COSTAR). DMSO was used to dissolve commercial medications and test compounds at a concentration of 20 mg/mL. They were then diluted 200 times in a solution of PBS (pH 7.4 ± 0.1)/EtOH (70/30, v/v) to achieve a final concentration of 100 µg/mL. The donor microplate's fifilter membrane was coated with 4 µL of PBL in dodecane (20 mg/mL). The donor wells were then filled with 200 µL of diluted chemical solution and 300 µL of PBS/EtOH (70/30, v/v). To make the membrane contact with buffer solution, the donor fifilter plate was carefully positioned on top of the acceptor plate to form a “sandwich” assembly. At 25 °C, the sandwich was left undisturbed. The donor plate was carefully removed after 18 h of incubation, and the concentrations of test chemicals in the donor and acceptor wells were quantified using a UV plate spectroscopic reader (PerkinElmer VICTOR Nivo, Finland). Each sample was analysed at three wavelengths, in at least three independent experiments, in four wells.
Pe, permeability, refers to the ability of compounds to permeate the membranes through passive diffusion in the blood-brain barrier penetration assays.
In general terms: In PAMPA a lipid-coated filter parts donor from acceptor wells.
Take `Clc1cccc(Cl)c1N=C1NCCN1` [Clonidine]: the BBB penetration entry was “CNS+”.

The data set is the same for the next values; noted with them: PAMPA, pH 7.4.
`Clc1cccc(Cl)c1N=C1NCCN1` [Clonidine] showed a Papp of 8.3 ×10⁻⁶ cm/s. Still for that read-out and setting: then `CC(=O)[C@H]1CC[C@H]2[C@@H]3CCC4=CC(=O)CC[C@]4(C)[C@H]3CC[C@]12C` [Progesterone], with 8.1 ×10⁻⁶ cm/s; and `CN1C(C(=O)Nc2ccccn2)=C(O)c2ccccc2S1(=O)=O` [Piroxicam], with 2.23 ×10⁻⁶ cm/s.

The target of the next data set is T2, AChE from electric eel (Electrophorus electricus, UniProt O42275).
T2 construct: AChE from electric eel (C3389-500UN; Sigma); purchased Sigma C3389-500UN
T2 sequence (O42275 24-633): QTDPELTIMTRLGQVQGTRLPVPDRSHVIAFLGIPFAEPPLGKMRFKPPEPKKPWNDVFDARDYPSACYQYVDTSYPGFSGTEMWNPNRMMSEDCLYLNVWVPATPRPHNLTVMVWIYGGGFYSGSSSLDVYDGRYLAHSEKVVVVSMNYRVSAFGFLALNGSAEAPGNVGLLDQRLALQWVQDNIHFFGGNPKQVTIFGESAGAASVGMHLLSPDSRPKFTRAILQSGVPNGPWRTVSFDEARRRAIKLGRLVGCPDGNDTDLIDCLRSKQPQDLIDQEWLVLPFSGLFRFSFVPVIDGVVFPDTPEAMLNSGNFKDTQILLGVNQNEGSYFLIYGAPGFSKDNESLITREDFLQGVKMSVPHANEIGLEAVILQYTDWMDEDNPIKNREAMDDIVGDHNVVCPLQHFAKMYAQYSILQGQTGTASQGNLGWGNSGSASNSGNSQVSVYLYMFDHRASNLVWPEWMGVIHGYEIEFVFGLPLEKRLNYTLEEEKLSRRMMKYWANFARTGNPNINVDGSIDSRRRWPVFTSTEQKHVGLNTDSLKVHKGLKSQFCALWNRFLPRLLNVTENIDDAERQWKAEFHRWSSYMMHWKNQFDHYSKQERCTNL
In words: EeAChE inhibition assay (Ellman's method). In kind it is biochemical. Conditions: 20 µM, na = no inhibitory activity at 20 µM. As for the experimental part:
as §1, §2
Background: DTNB colorimetry detects thiols as they appear.
As to `Cc1nn(-c2ccccn2)c(OS(=O)(=O)F)c1C` [Compound K12], the “AChE % inhibition at 20 µM” value is 42.8 ± 0.8%. Still for that read-out and setting: the figure for `Cc1nn(-c2ccccc2)c(OS(=O)(=O)F)c1C` [Compound K11] is 7.2 ± 1.0%; for `CC(C)(C)n1nc(-c2ccccc2)cc1OS(=O)(=O)F` [Compound K9] it is 10.1 ± 0.4%.

Still in this data set, the particulars now being: mean ± SEM.
Take `O=S(=O)(F)Oc1cc(-c2ccccc2)nn1-c1ccccn1` [Compound K7]: the IC50 worked out at 19.39 ± 0.01 µM. The same measure, in the same setting: then `O=S(=O)(F)Oc1cc(C2CC2)nn1-c1ccccc1` [Compound K26], with 4.82 ± 0.07 µM; and `Cc1ccc(-n2nc(C(C)C)cc2OS(=O)(=O)F)cc1` [Compound K22], with 2.6 ± 0.27 µM.

As for `CC(C)c1cc(OS(=O)(=O)F)n(-c2ccc(F)cc2)n1` [Compound K21], the half-inhibitory concentration (IC50) came to 7.79 ± 0.07 µM.

The same data set, now with this note: read-out: AChE % inhibition at 20 µM, 20 µM, na = no inhibitory activity at 20 µM.
On to `Cc1cc(OS(=O)(=O)F)n(-c2ccc(Cl)cc2)n1` [Compound K15], for which the inhibition at 20 µM amounted to 45.2 ± 1.3%. The same measure, in the same setting: then `CC(C)c1cc(OS(=O)(=O)F)n(-c2ccccc2)n1` [Compound K20], with 41.6 ± 0.7%. Same read-out and setting: the figure for `Cc1ccc(-n2nc(C(C)C)cc2OS(=O)(=O)F)cc1C` [Compound K23] is 21.4 ± 1.1%; for `Cc1ccc(-n2nc(-c3ccccc3)cc2OS(=O)(=O)F)cc1C` [Compound K5] it is 24.4 ± 2.1%; for `O=C1CC(c2ccccc2)=NN1c1ccccc1` [Compound M1] it is 8.8 ± 2.6%. In the case of `Cc1ccc(-n2nc(-c3ccccc3)cc2OS(=O)(=O)F)cc1` [Compound K4], the inhibition at 20 µM was determined as 25.9 ± 0.9%. Same read-out and setting: then `Cc1cc(OS(=O)(=O)F)n(-c2ccc(Br)cc2)n1` [Compound K16], with 37.2 ± 0.7%.

In the case of `O=S(=O)(F)Oc1cc(-c2ccccc2)n[nH]1` [Compound K10], the inhibition at 20 µM is 32 ± 1.2%. The same measure, in the same setting: then `COc1ccc(-n2nc(-c3ccccc3)cc2OS(=O)(=O)F)cc1` [Compound K6], with 25.7 ± 1.5%; and `Cc1cc(OS(=O)(=O)F)n(-c2ccccc2)n1` [Compound K13], with 37.5 ± 1.4%; and `Cc1cc(OS(=O)(=O)F)n(-c2ccc(C)c(C)c2)n1` [Compound K18], with 8.1 ± 0.5%.

In the case of `O=C1CC(c2ccccc2)=NN1c1ccc(Cl)cc1` [Compound M3], the inhibition at 20 µM was determined as 26.9 ± 1%. Consider `Cc1cccc(-n2nc(C)cc2OS(=O)(=O)F)c1` [Compound K17], for which the inhibition at 20 µM came to 33.4 ± 1.3%. Still for that read-out and setting: then `Cc1ccc(N2N=C(c3ccccc3)CC2=O)cc1C` [Compound M4], with 10.7 ± 1.9%; and `CCCc1cc(OS(=O)(=O)F)n(-c2ccc(OC)cc2)n1` [Compound K25], with 10.3 ± 0.6%. Consider `Cc1cc(OS(=O)(=O)F)n(-c2ccc(F)cc2)n1` [Compound K14], for which the inhibition at 20 µM was 48.2 ± 1%. Same read-out and setting: then `O=S(=O)(F)Oc1cc(-c2ccccc2)nn1-c1ccccc1` [Compound K1], with 33.6 ± 1.6%. Consider `O=C1CC(c2ccccc2)=NN1c1ccc(F)cc1` [Compound M2], for which the inhibition at 20 µM stood at 37 ± 3.3%.

Take `O=S(=O)(F)Oc1cc(-c2ccccc2)nn1-c1ccc(F)cc1` [Compound K2]: the inhibition at 20 µM was found to be 27.5 ± 2.7%.

`CCCc1cc(OS(=O)(=O)F)n(-c2ccc(Cl)cc2)n1` [Compound K24]: the inhibition at 20 µM is 41.8 ± 0.2%. The same measure, in the same setting: then `O=S(=O)(F)Oc1cc(-c2ccccc2)nn1C1CCCCC1` [Compound K8], with 25.1 ± 1.2%.
